Source: PubChem BioAssay AID256 (DTP/NCI, 2004)
Inconclusive results and toxic doses are left out. The calls were made as follows: active = survival T/C of 150% or more; inactive = T/C below 125% in these data.

Test system: CD2F1 mice, L1210 leukemia ip, survival T/C
Assay: NCI In Vivo Anticancer Drug Screen. Data for tumor model L1210 Leukemia (intraperitoneal) in CD2F1 (CDF1) mice
Details: higher = longer survival
Procedure, shortened: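 Read-out first: treated-group measurement over vehicle-control measurement, expressed as a ratio. Animals bore a transplanted tumor line and were dosed with compound or vehicle.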

[1] = endpoint: mean survival time, dose: 100.0 mg/kg/injection, schedule: Q04DX003 (ip), vehicle: saline with Tween-80
[2] = endpoint: mean survival time, dose: 200.0 mg/kg/injection, schedule: Q04DX003 (ip), vehicle: saline with Tween-80
[3] = endpoint: mean survival time, dose: 400.0 mg/kg/injection, schedule: Q04DX003 (ip), vehicle: saline with Tween-80
[4] = endpoint: mean survival time, dose: 100.0 mg/kg/injection, schedule: Q01DX001 (ip), vehicle: saline with Tween-80
[5] = endpoint: mean survival time, dose: 200.0 mg/kg/injection, schedule: Q01DX001 (ip), vehicle: saline with Tween-80
[6] = endpoint: mean survival time, dose: 400.0 mg/kg/injection, schedule: Q01DX001 (ip), vehicle: saline with Tween-80
[7] = endpoint: mean survival time, dose: 100.0 mg/kg/injection, schedule: Q01DX009 (ip), vehicle: saline with Tween-80
[8] = endpoint: mean survival time, dose: 200.0 mg/kg/injection, schedule: Q01DX009 (ip), vehicle: saline with Tween-80

Measured: T/C

O=C(/C=C1/OCCN1C(=O)Nc1ccccc1)Nc1ccccc1
inactive: [1] 107 % of control | [2] 103 % of control | [3] 97 % of control

CCCCCCCCCCCCCCOc1ccc(OCCCCCCCCC)cc1
inactive: [4] 94 % of control | [5] 94 % of control | [6] 95 % of control

CCCCCCCCOc1ccc(/C=N\N=C\c2ccc(OCCCCCCCC)cc2)cc1
inactive: [1] 94 % of control | [2] 94 % of control | [3] 94 % of control

O=C1CCC([N+](=O)[O-])C(c2cccc3ccccc23)N1 (centres undefined)
inactive: [4] 94 % of control | [5] 94 % of control | [6] 97 % of control

CC(=O)NCC1CCN(C(C)=O)CC1
inactive: endpoint: mean survival time, dose: 100.0 mg/kg/injection, schedule: Q04DX003 (ip), vehicle: saline 94 % of control | endpoint: mean survival time, dose: 200.0 mg/kg/injection, schedule: Q04DX003 (ip), vehicle: saline 96 % of control | endpoint: mean survival time, dose: 400.0 mg/kg/injection, schedule: Q04DX003 (ip), vehicle: saline 96 % of control

O=C(CC(=O)C(F)(F)F)c1cccs1.O=C(CC(=O)C(F)(F)F)c1cccs1.O=C(CC(=O)C(F)(F)F)c1cccs1.[Sm]
inactive: endpoint: median survival time, dose: 50.0 mg/kg/injection, schedule: Q04DX002 (ip), vehicle: saline with Tween-80 100 % of control | endpoint: median survival time, dose: 100.0 mg/kg/injection, schedule: Q04DX002 (ip), vehicle: saline with Tween-80 88 % of control | endpoint: median survival time, dose: 200.0 mg/kg/injection, schedule: Q04DX002 (ip), vehicle: saline with Tween-80 100 % of control

CCOC(=O)CN(C=O)C1c2ccccc2-c2ccccc21
inactive: [1] 99 % of control | [2] 92 % of control | [3] 97 % of control

CCCCC(CCCC)(C(=O)NC)c1ccccc1
inactive: [1] 95 % of control | [2] 97 % of control | [3] 90 % of control

COc1ccc2c(c1O)-c1cc(O)cc3c1C(C2)N(CCCl)CC3 (centres undefined)
inactive: endpoint: mean survival time, dose: 3.13 mg/kg/injection, schedule: Q04DX003 (ip), vehicle: water 104 % of control | endpoint: mean survival time, dose: 6.25 mg/kg/injection, schedule: Q04DX003 (ip), vehicle: water 102 % of control | endpoint: mean survival time, dose: 12.5 mg/kg/injection, schedule: Q04DX003 (ip), vehicle: water 105 % of control | endpoint: mean survival time, dose: 25.0 mg/kg/injection, schedule: Q04DX003 (ip), vehicle: DMSO 102 % of control | endpoint: mean survival time, dose: 25.0 mg/kg/injection, schedule: Q04DX003 (ip), vehicle: water 100 % of control | endpoint: mean survival time, dose: 50.0 mg/kg/injection, schedule: Q04DX003 (ip), vehicle: water 88 % of control

O=[N+]([O-])c1ccc(N2CCCCC2)c([N+](=O)[O-])c1
inactive: [7] 96 % of control | [8] 98 % of control | endpoint: mean survival time, dose: 400.0 mg/kg/injection, schedule: Q01DX009 (ip), vehicle: saline with Tween-80 95 % of control

CCOc1ccccc1NC(=O)c1ccc(Cl)cc1
inactive: [1] 97 % of control | [2] 100 % of control | [3] 103 % of control

O=CNNC(=S)Nc1ccccc1
inactive: endpoint: mean survival time, dose: 50.0 mg/kg/injection, schedule: Q01DX009 (ip), vehicle: saline with Tween-80 100 % of control | [7] 96 % of control | [8] 96 % of control
